Results published in patent US7994125B2, “Stem cell factor for preventing chemotherapy-induced depletion of blood cells” (Istituto Superiore Di Sanita, priority 2003, dated 2011).

Experiments:
[1] = test system: megakaryocytic precursors; assay: Chemotherapy-induced cell death of megakaryocytic cells; type: cell-based; conditions: for sensitivity of mature polynucleated megakaryocytic precursors versus day 6 immature precursors: Etoposide 4 micromolar, Daunorubicin 0.5 micromolar or Vincristine 0.5 micromolar
Method: Decreased platelet number is a common side effect of chemotherapy. In a separate set of experiments, the protective effect of SCF on chemotherapy-induced cell death was evaluated on megakaryocytic cells, which derive from hematopoietic stem and progenitor cells and give rise to platelets. […] We pretreated immature megakaryocytic precursors at day 4 of differentiation with SCF for 48 hours before exposure to chemotherapeutic agents. SCF was maintained during the exposure to chemotherapic agents.

CD34+ progenitors = assay: Chemosensitivity of CD34+ progenitors, cell death by ethidium bromide/acridine orange staining; type: cell-based, human; conditions: CD34+ cells; 24 hours; 1.5 μg/ml cisplatin or 50 ng/ml camptothecin; standard erythroid medium
Source text: (§1) FIG. 1. Chemosensitivity of CD34^+ progenitors and erythroid precursors.
(§2) Unilineage hematopoietic differentiation in bulk and single cell culture. Stem Cells. 1998; 16(suppl 1):51-73.
(§3) Nature. […] Unilineage hematopoietic differentiation in bulk and single cell culture. Stem Cells. 1998; 16(suppl 1):51-73).

[2] = test system: day 7 (pro/basophilic) erythroblasts
Method: as §1
(§4) FIG. 2. […] After 24 hours the percentage of cell death was determined by ethidium bromide/acridine orange staining.
(§5) Adult peripheral blood human progenitor cell (HPC) purification and culture. Adult peripheral blood was obtained from male donors after their informed consent and the approval by the Committee for Human Studies. Human CD34^+ precursor cells were purified from peripheral blood by positive selection using the midi-MACS immunomagnetic separation system (Miltenyi Biotec, Bergisch Gladbach, Germany) according to the manufacturer's instructions. CD34^+ precursors were cultured in serum-free medium supplemented with 0.01 U/ml interleukin-3 (IL-3), 0.001 ng/ml GM-CSF and 3 U/ml Epo to induce unilineage erythroid differentiation. […] Cell viability was evaluated by ethidium bromide-acridine orange staining and fluorescence microscopy analysis.^15 The differentiation stage of erythroid precursor cells was evaluated by May-Grünwald-Giemsa staining and cytologic analysis. Ziegler B, Testa U, Condorelli G, Vitelli L, Valtieri M, Peschle C. Unilineage hematopoietic differentiation in bulk and single cell culture. Stem Cells. 1998; 16(suppl 1):51-73. For clonogenetic assay, 10^2 CD34^+ cells and 2×10^2 cells from day 5 or day 7 unilineage erythroid cultures were plated in duplicate in 0.9% methylcellulose containing 40% FCS and saturating concentrations of erythropoietin (3 U/mL), TPO (50 ng/mL), granulocyte macrophage-colony stimulating factor (GM-CSF; 10 ng/mL), M-CSF (250 U/mL), G-CSF (500 U/mL), IL-6 (10 ng/mL), stem cell factor (100 ng/mL), Flt3 ligand (100 ng/mL), and IL-3 (100 U/mL). Colonies were scored after 14 days of culture at 37° C. in a 5% CO2/5% O2/90% N2 humidified atmosphere.

[3] = test system: caspase 3, caspase 7 and caspase 8
Method: as §4
(§6) FIG. 4. […] After 48 hours, 4×10^4 cells were washed and replated in standard erythroid medium with or without 100 ng/ml SCF.
Western blotting. For detection of caspases, protein extracts were prepared by resuspending cell pellets in 1% NP40 lysis buffer (20 mM Tris/HCl pH 7.2, 200 mM NaCl, 1% NP40) in the presence of 1 mM phenylmethylsulphonyl fluoride (PMSF) and 2 μg/ml each of leupeptin, aprotinin and pepstatin. Concentration of lysates was determined by the Bradford assay (Bio-Rad Laboratories, Richmond, Calif.) and equal amounts of proteins were used for SDS-PAGE. Samples were analyzed by standard immunoblot procedure and visualized by chemiluminescence (Super Signal West Pico Pierce, Rockford, Ill.). Quantification of protein expression levels was performed with the NIH IMAGE software version 1.62 (by Wayne Rasband, National Institutes of Health, Research Services Branch, NIMH).

[4] = test system: day 14 (orthochromatic) erythroblasts; assay: Chemosensitivity of day 14 erythroblasts, cell death by ethidium bromide/acridine orange staining; type: cell-based; conditions: 24 hours, 1.5 μg/ml cisplatin or 50 ng/ml camptothecin
Source text: as §1, §2, §3

CD34 positive cells = assay: Protection of proliferating CD34 positive cells from chemotherapeutic agents in vitro; type: cell-based
Method: as §5

[5] = test system: anti-apoptotic genes belonging to the Bcl-2 family and to the Notch family; assay: Expression of pro- and anti-apoptotic genes in SCF-treated erythroid precursor cells; type: cell-based, human
Source text: In order to elucidate the mechanisms responsible for the protective effect of SCF from chemotherapy-induced cell death, we analysed the expression of pro- and anti-apoptotic genes in SCF-treated erythroid precursor cells. SCF induced an upregulation of anti-apoptotic genes belonging to the Bcl-2 family and to the Notch family, as well as an increase in the levels of several transcription factors involved in the control of cellular proliferation and survival.

[6] = test system: day 7 erythroid culture cells; assay: Clonogenetic assay of erythroid unilineage culture cells in semisolid medium; type: cell-based, human; conditions: two-days treatment with 100 ng/ml SCF (day 5 to day 7)
Method: FIG. 5. […] (A) Clonogenetic assay of CD34^+ cells (day 0) or cells grown in liquid culture and subsequently plated in semisolid medium at day 5 or day 7 of erythroid differentiation. Control cells (day 5 and day 7 Epo) were cultivated in standard erythroid medium before the colony assay, whereas SCF-treated cells (day 7 Epo+SCF) received 100 ng/ml SCF from day 5 to day 7 of liquid culture. (B) Cytofluorimetric analysis of glycophorin A-positive cells in erythroid unilineage culture. Cells were analyzed after five (day 5) or seven days (day 7) of erythroid differentiation in standard erythroid medium (Epo) or in the same medium supplied with 100 ng/ml SCF starting from day 5 (Epo+SCF).
as §2
SCF supports the selective expansion of erythroid cells in unilineage culture conditions after treatment with chemotherapeutic agents. Theoretically, SCF may promote the growth of non-erythroid cells present in small numbers in erythroblastic cultures, and even specifically protect these contaminants from cytotoxic drugs, thus generating a post-chemotherapy population of non-erythroid cells. […]

[7] = test system: erythroid and granulocytic precursor cells, uncommitted CD34+ progenitors; assay: SCF treatment of purified hematopoietic progenitors and precursors exposed to antineoplastic agents; type: cell-based, human
Source text: Purified populations of hematopoietic progenitors and precursors are routinarily obtained in our laboratory through purification of […] cells from peripheral blood and culture in serum-free medium with unilineage growth factors. Hematopoietic progenitor cells display different sensitivity to the cytotoxic effect of chemotherapeutic agents depending on their lineage commitment and stage of maturation. […] The protective effects of SCF are achieved by administrating this cytokine before the cytotoxic treatment, during the course of the treatment itself and after the toxic stimulus has been interrupted. […] Importantly, once the toxic stimulus has been removed, SCF-treated cells re-enter the differentiative pathway, maintaining their ability to complete successfully the normal maturation process.

[8] = in vivo; cited from earlier work
Bcl-2 and Bcl-XL = assay: Western blot analysis of Bcl-2 and Bcl-XL levels in day 7 erythroblasts; type: cell-based, human; conditions: erythroblasts treated for two days with 100 ng/ml SCF versus standard erythroid medium
day 7 erythroblasts = assay: Erythroblast recovery and expansion after removal of cisplatin; type: cell-based
Method: as §6

COc1cccc2c1C(=O)c1c(O)c3c(c(O)c1C2=O)C[C@@](O)(C(C)=O)C[C@@H]3O[C@H]1C[C@H](N)[C@H](O)[C@H](C)O1 [Daunorubicin]
sensitivity of mature polynucleated megakaryocytic precursors versus day 6 immature precursors [1]: more resistant

CC[C@]1(O)C[C@H]2CN(CCc3c([nH]c4ccccc34)[C@@](C(=O)OC)(c3cc4c(cc3OC)N(C=O)[C@H]3[C@@](O)(C(=O)OC)[C@H](OC(C)=O)[C@]5(CC)C=CCN6CC[C@]43[C@@H]65)C2)C1 [Vincristine]
sensitivity of mature polynucleated megakaryocytic precursors versus day 6 immature precursors [1]: more resistant | death of early megakaryocytic cells ([1]; day 6 precursors, Vincristine 0.5 micromolar): 100% | death of late megakaryocytic cells ([1]; day 12 precursors, Vincristine 0.5 micromolar): 20%

CC[C@@]1(O)C(=O)OCc2c1cc1n(c2=O)Cc2cc3ccccc3nc2-1 [camptothecin]
sensitivity to drug-induced apoptosis (CD34+ progenitors): modest sensitivity | sensitivity to cytotoxic effect of chemotherapeutic agents ([2]; day 7 immature erythroblasts, 24 hours, 1.5 μg/ml cisplatin or 50 ng/ml camptothecin, saturating Epo): extremely sensitive | caspase activation by cytotoxic drug ([3]; day 7 erythroblasts, 8 hours, 200 ng/ml camptothecin, 3 μg/ml cisplatin or 5 μM etoposide): activated caspase 3, 7 and 8 | sensitivity to cytotoxic effect of chemotherapeutic agents [4]: almost completely resistant

N.N.[Cl][Pt][Cl] [cisplatin, reference compound]
sensitivity to drug-induced apoptosis (CD34+ progenitors): modest sensitivity | death of CD34 positive cells in absence of SCF (CD34 positive cells; 3 micrograms/mL Cisplatin, proliferating cells (interleukin-3, fms-like tyrosine kinase 3), no SCF): virtually all cells die

COc1cc([C@@H]2c3cc4c(cc3[C@@H](O[C@@H]3O[C@@H]5CO[C@@H](C)O[C@H]5[C@H](O)[C@H]3O)[C@H]3COC(=O)[C@H]23)OCO4)cc(OC)c1O [etoposide]
sensitivity of mature polynucleated megakaryocytic precursors versus day 6 immature precursors [1]: more resistant

SCF: haematopoietic growth factor, 18.6 KD, ligand of c-Kit; human recombinant SCF purchased from Peprotech
protection of erythroblasts from toxic effects of antineoplastic drugs ([2]; 100 ng/ml SCF from day 5 for 48 hours and during exposure, camptothecin, cisplatin or etoposide): significantly protected | expression of anti-apoptotic genes of the Bcl-2 family and Notch family [5]: upregulation | growth of erythroid colonies [6]: significant stimulatory effect | percentage of granulo-monocytic colonies [6]: did not significantly increase | amount of inactive pro-caspase 3, 7 and 8 versus control erythroblasts ([3]; pretreated two days with SCF, 8 hours camptothecin, cisplatin or etoposide): significantly higher | protection of megakaryocytic cells from toxic effects of antineoplastic drugs ([1]; 100 ng/ml SCF from day 4 for 48 hours and during exposure, Etoposide, Daunorubicin or Vincristine): significantly protected | protection from death induced by antineoplastic agents [7]: strong protection | CD34 positive cells surviving (CD34 positive cells; 3 micrograms/mL Cisplatin, cells induced to proliferate with interleukin-3 (50 units/mL) and fms-like tyrosine kinase 3 (100 nanograms/mL), treated with SCF): about 50% | expansion and clonogenetic output after removal of chemotherapeutic drugs (CD34 positive cells; SCF-treated cells, clonogenetic assays): able to expand and give rise to all the standard hematopoietic populations | protection of CD34 positive cells from cytotoxic activity of chemotherapeutic agents (CD34 positive cells; in vitro, Cisplatin, Etoposide and Daunorubicin): protects | tolerability of administration [8]: generally well tolerated | Bcl-2 and Bcl-XL protein levels (Bcl-2 and Bcl-XL): upregulated | proliferative activity after removal of the cytotoxic agent (day 7 erythroblasts; SCF day 5-9, 3 μg/ml cisplatin 48 hours, washed, fresh medium): regained full proliferative activity | proliferation of survived erythroid cells with SCF maintained after drug removal (day 7 erythroblasts; SCF day 5-21, 3 μg/ml cisplatin 48 hours): high proliferation rate | survival to cisplatin treatment (day 7 erythroblasts; preincubated two days with 100 ng/ml SCF, 3 μg/ml cisplatin for 48 hours): enhanced survival

zVAD-fmk [reference compound]
effect on chemotherapy-induced erythroblast death ([2]; zVAD 40 μM, camptothecin, cisplatin or etoposide, 24 hours): abrogated completely | effect on drug-induced caspase activation ([3]; zVAD 40 μM, day 7 erythroblasts, 8 hours): abolished caspase activation
